One substance from US5242826A, “Polypeptides for adhering cells to a substrate” (Regents of the University of Minnesota, priority 1991, dated 1993) can be followed below.

The nature of this experiment: 3H-heparin binding to type IV collagen and to NCl domain. How it is done:
It was then established that ^3 H-heparin binds both to intact, native type IV collagen and to the isolated NCl domain. FIGS. 10 and 11 show the binding of a constant amount of ^3 H-heparin (85,000 dpm) to increasing concentrations of type IV collagen and the NCl domain, respectively. […] Type IV collagen binds 5-6 times more ^3 H-heparin than does the NCl domain.
Next, the binding of increasing concentrations of ^3 H-heparin to a constant amount of type IV collagen (3 μg) and an equimolar amount of the NCl domain (1 μg) was tested. […] In this type of experiment, approximately 4 times more ^3 H-heparin bound to type IV collagen than to the NCl domain.

As for “type IV collagen: basement membrane glycoprotein, MW about 500,000, two α1 chains and one α2 chain”, under “3H-heparin 85,000 dpm, FIG. 10-11”, the “binding of a constant amount of 3H-heparin to increasing concentrations of protein” value is given as “saturable binding”. Further, the “3H-heparin bound by type IV collagen relative to NCl domain” value (constant 3H-heparin (85,000 dpm), increasing protein) is on record as 5-6 times. Besides, under “increasing 3H-heparin, constant protein (3 μg vs 1 μg)”, the “3H-heparin bound to type IV collagen relative to NCl domain” value is on record as “approximately 4 times”. For the same substance, the “binding of increasing concentrations of 3H-heparin to a constant amount of protein” value (type IV collagen 3 μg, NCl domain 1 μg (equimolar), FIG. 12-13) is listed as “saturable binding”.
